Here are results for nine compounds from patent US20260265233A1, “BENZOTHIOPHENE DERIVATIVES AS RXFP1 AGONISTS” (BRISTOL-MYERS SQUIBB COMPANY, priority 2021, published 2026).

In this assay the target is T1, human RXFP1 (Homo sapiens, UniProt Q9HBX9).
T1 construct: expressed in transfected cells
T1 sequence (Q9HBX9 1-757): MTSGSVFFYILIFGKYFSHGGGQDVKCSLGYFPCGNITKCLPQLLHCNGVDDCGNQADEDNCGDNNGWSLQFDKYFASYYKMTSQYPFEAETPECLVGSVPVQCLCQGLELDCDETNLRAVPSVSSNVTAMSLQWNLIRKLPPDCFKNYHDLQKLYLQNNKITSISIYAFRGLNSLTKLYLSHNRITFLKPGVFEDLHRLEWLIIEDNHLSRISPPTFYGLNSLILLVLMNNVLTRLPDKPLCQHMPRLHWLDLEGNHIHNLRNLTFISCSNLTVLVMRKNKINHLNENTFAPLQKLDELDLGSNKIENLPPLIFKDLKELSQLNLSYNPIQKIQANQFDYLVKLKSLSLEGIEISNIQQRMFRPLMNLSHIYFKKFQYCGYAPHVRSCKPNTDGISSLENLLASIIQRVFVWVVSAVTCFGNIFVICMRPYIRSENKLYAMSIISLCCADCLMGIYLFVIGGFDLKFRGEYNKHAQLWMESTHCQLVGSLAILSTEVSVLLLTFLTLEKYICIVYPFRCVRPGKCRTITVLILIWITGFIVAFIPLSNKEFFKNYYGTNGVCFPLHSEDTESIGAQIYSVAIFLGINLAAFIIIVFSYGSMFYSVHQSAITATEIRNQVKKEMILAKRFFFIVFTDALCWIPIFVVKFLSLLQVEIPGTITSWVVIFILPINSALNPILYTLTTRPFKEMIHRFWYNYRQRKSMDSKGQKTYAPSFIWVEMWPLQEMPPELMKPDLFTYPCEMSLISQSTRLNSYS
As to the kind of experiment: hRXFP1 HEK293 cAMP assay (HTRF). Format: cell-based. To be noted: HEK293 cells stably expressing human RXFP1; 30 min at rt; intracellular cAMP by HTRF. On the procedure: RXFP1 Cyclic Adenosine Monophosphate (cAMP) Assays. Human embryonic kidney cells 293 (HEK293) cells and HEK293 cells stably expressing human RXFP1, were cultured in MEM medium supplemented with 10% qualified FBS, and 300 μg/ml hygromycin (Life Technologies). Cells were dissociated and suspended in assay buffer. The assay buffer was HBSS buffer (with calcium and magnesium) containing 20 mM HEPES, 0.05% BSA, and 0.5 mM IBMX. Cells (3000 cells per well, except 1500 cell per well for HEK293 cells stably expressing human RXFP1) were added to 384-well Proxiplates (Perkin-Elmer). Cells were immediately treated with test compounds in DMSO (2% final) at final concentrations in the range of 0.010 nM to 50 μM. Cells were incubated for 30 min at rt. The level of intracellular cAMP was determined using the HTRF HiRange cAMP assay reagent kit (Cisbio) according to manufacturer's instructions. Solutions of cryptate conjugated anti-cAMP and d2 fluorophore-labelled cAMP were made in a supplied lysis buffer separately. Upon completion of the reaction, the cells were lysed with equal volume of the d2-cAMP solution and anti-cAMP solution. After a 1 h rt incubation, time-resolved fluorescence intensity was measured using the Envision (Perkin-Elmer) at 400 nm excitation and dual emission at 590 nm and 665 nm. A calibration curve was constructed with an external cAMP standard at concentrations ranging from 2.7 μM to 0.1 pM by plotting the fluorescent intensity ratio from 665 nm emission to the intensity from the 590 nm emission against cAMP concentrations. The potency and activity of a compound to […] cAMP production was then determined by fitting to a 4-parametric logistic equation from a plot of cAMP level versus compound concentrations.
The examples disclosed below were tested in the human RXFP1 (hRXFP1) HEK293 cAMP assay described above and found to have agonist activity.

On to `COc1ccc(-n2cc(C(C)(C)O)cn2)cc1C(=O)Nc1c(C(=O)Nc2ccc(F)c(C(F)(F)F)c2)sc2cc(C(F)(F)F)ccc12` [Example 3, N-(4-fluoro-3-(trifluoromethyl)phenyl)-3-(5-(4-(2-hydroxypropan-2-yl)-1H-pyrazol-1-yl)-2-methoxybenzamido)-6-(trifluoromethyl) benzo[b]thiophene-2-carboxamide], for which the EC50 was 350 nM.
As for `COc1ccc(-c2cc(CO)on2)cc1C(=O)Nc1c(C(=O)Nc2ccc(F)c(C(F)(F)F)c2)sc2cc(C(F)(F)F)ccc12` [Example 287, N-(4-fluoro-3-(trifluoromethyl)phenyl)-3-(5-(5-(hydroxymethyl)isoxazol-3-yl)-2-methoxy-benzamido)-6-(trifluoromethyl) benzo[b] thiophene-2-carboxamide], the figure is 1260 nM.
As for `COc1ccc(-c2cnn(C)c2C(=O)O)cc1C(=O)Nc1c(C(=O)Nc2ccc(F)c(C(F)(F)F)c2)sc2cc(C(F)(F)F)ccc12` [Example 212, 4-(3-((2-((4-fluoro-3-(trifluoromethyl)phenyl)carbamoyl)-6-(trifluoromethyl)benzo[b]thiophen-3-yl)carbamoyl)-4-methoxyphenyl)-1-methyl-1H-pyrazole-5-carboxylic acid], the figure is 3330 nM.
As for `COc1ccc(C2=NOC(CO)C2)cc1C(=O)Nc1c(C(=O)Nc2ccc(F)c(C(F)(F)F)c2)sc2cc(C(F)(F)F)ccc12` (single isomer, unassigned) [Example 250, N-(4-fluoro-3-(trifluoromethyl)phenyl)-3-(5-(5-(hydroxymethyl)-4,5-dihydroisoxazol-3-yl)-2-methoxy-benzamido)-6-(trifluoromethyl) benzo[b] thiophene-2-carboxamide], the figure is 280 nM.
Consider `COc1ccc(C2=NOC3CC(N)CC23)cc1C(=O)Nc1c(C(=O)Nc2ccc(F)c(C(F)(F)F)c2)sc2cc(C(F)(F)F)ccc12` (single isomer, unassigned) [Example 259, 3-(5-{5-amino-3aH,4H,5H,6H, 6aH-cyclopenta[d] [1,2]oxazol-3-yl}-2-methoxy-benzamido)-N-[4-fluoro-3-(trifluoromethyl)phenyl]-6-(trifluoromethyl)-1-benzothiophene-2-carboxamide], for which the EC50 was 364 nM. This EC50 and that of the compound before are within 1.5-fold of each other.
`COc1ccc(C2CC2C(=O)O)cc1C(=O)Nc1c(C(=O)Nc2ccc(F)c(C(F)(F)F)c2)sc2cc(C(F)(F)F)ccc12` (stereo not drawn) [Example 46, 2-(3-((2-((4-fluoro-3-(trifluoromethyl)phenyl)carbamoyl)-6-(trifluoromethyl)benzo[b]thiophen-3-yl)carbamoyl)-4-methoxyphenyl) cyclopropane-1-carboxylic acid] showed an EC50 of 295 nM. The EC50 values of the last two compounds are within 1.5-fold of each other.
The result for `COc1ccc(-c2cnc(C3(O)CCS(=O)(=O)C3)nc2)cc1C(=O)Nc1c(C(=O)Nc2ccc(F)c(C(F)(F)F)c2)sc2cc(C(F)(F)F)ccc12` (single isomer, unassigned) [Example 23, N-(4-fluoro-3-(trifluoromethyl)phenyl)-3-(5-(2-(3-hydroxy-1,1-dioxidotetrahydrothiophen-3-yl)pyrimidin-5-yl)-2-methoxybenzamido)-6-(trifluoromethyl)benzo[b]thiophene-2-carboxamide] reads 3100 nM.
As for `CCS(=O)(=O)Nc1cncc(-c2ccc(OC)c(C(=O)Nc3c(C(=O)Nc4ccc(F)c(C(F)(F)F)c4)sc4cc(C(F)(F)F)ccc34)c2)c1` [Example 116, 3-(5-(5-(ethylsulfonamido)pyridin-3-yl)-2-methoxy-benzamido)-N-(4-fluoro-3-(trifluoromethyl)phenyl)-6-(trifluoromethyl) benzo[b] thiophene-2-carboxamide], the figure is 650 nM.
The result for `COc1ccc(C2CCCN(CCS(C)(=O)=O)C2)cc1C(=O)Nc1c(C(=O)Nc2ccc(F)c(C(F)(F)F)c2)sc2cc(C(F)(F)F)ccc12` (single isomer, unassigned) [Example 86, N-(4-fluoro-3-(trifluoromethyl)phenyl)-3-(2-methoxy-5-(1-(2-(methylsulfonyl)ethyl)piperidin-3-yl)benzamido)-6-(trifluoromethyl) benzo[b] thiophene-2-carboxamide] reads 1150 nM.

One may read the EC50 as the concentration that produces a half-maximal response.
